From patent US9404142B2, “Screening methods for identifying Plasmodium proteases inhibitors” (Institut Pasteur, priority 2010, dated 2016)
Where two headings read alike, the source gives them in different places.

Key:
P. falciparum Dd2 strain = assay: In vitro drug susceptibility assay on P. falciparum culture, clone Dd2; type: cell-based; conditions: Plasmodium falciparum, DD2, read-out: IC50 on P. falciparum Dd2 strain
[1] = test system: P. falciparum (3D7 clone) segmented schizonts; assay: Merozoite egress/invasion, flow cytometry (YOYO-1) on segmented schizonts; type: cell-based, Plasmodium falciparum; conditions: 90 μM, 12 hr, serum-containing medium
Description: Next, the selected SUB1 inhibitors were evaluated biologically for their impact on P. falciparum 3D7 stage-specific ex vivo culture. […] In vitro synchronized culture of P. falciparum composed of 0.5% of segmented schizonts (To) was cultivated for 12 hr in serum-free medium in the absence (T12) or presence of DMSO (0.9% v/v) (lane DMSO). Lanes A/G1, A/G6, B/H5 correspond to parasites incubated with 90 μM of corresponding compounds. Lanes E64 and RBC correspond to parasites cultured in presence of E64 (10 μM) and uninfected erythrocytes respectively. Parasite extracts and culture supernatants were analyzed by western blot with mAb 24C6.1F1. […] Segmented schizonts (starting material, To) were cultivated for 12 hr in serum-containing medium and their transition to newly formed trophozoites-stages in presence of 0.9% DMSO (DMSO) was analysed by flow cytometry using YOYO1 Facs technique (Li et al, Cytometry, 71A, 297-307, 2007). […]
A synchronised culture composed of segmented schizonts of P. falciparum (3D7 clone) at 0.5% parasitemia and 1% hematocrit is performed in a 24 wells plate. […] The progress of the parasitaemia from segmented schizont to newly formed trophozoites was assessed by flow cytometry after staining samples by the DNA-binding fluorescent dye, YOYO-1™, as previously described by Li and colleagues [2007, Cytometry A 71: 297-307.] with some modifications. […]

P. falciparum 3D7 strain = assay: In vitro drug susceptibility assay on P. falciparum culture, clone 3D7; type: cell-based; conditions: Plasmodium falciparum
Description: FIG. 2B depicts the FRET-based specific enzymatic assay which was used. In this particular case the assay consists in measuring fluorescence of tagged peptidic substrate of SUB1. […] Molecules where thus tested and their Ki (inhibition constant) was determined on the PvSUB1 recombinant enzyme. FIG. 2C provides determination of the Ki of the AG6, AG1 and BH5 compounds for the recombinant PvSUB1 enzyme with the Dabsyl Edans substrate. […] The final mixture was distributed in duplicate into a 384-well black microtiter plate (Thermo Scientific) and the fluorescence was monitored. The slope of the linear part of the kinetic was determined in an Excel™ (Microsoft) spreadsheet. The Ki and EC50 values expressed in μM were determined using GraphPad Prism™ software.
Parasites were incubated at 37° C. in an atmosphere composed of 5% O2, 5% CO2 and 90% N2. […] IC50/EC50 have been determined following nonlinear regression analysis using HN-NonLin V1.1 software (malaria.farch.net).

recombinant PvSUB1 = recombinant PvSUB1 (Plasmodium vivax, UniProt E6Y8B9); assay: FRET-based PvSUB1 enzymatic assay, Ki determination; type: biochemical; conditions: Dabsyl Edans substrate; mean of at least three independent experiments ± SEM
Description: FIG. 2B depicts the FRET-based specific enzymatic assay which was used. In this particular case the assay consists in measuring fluorescence of tagged peptidic substrate of SUB1. An uncleaved peptide has low intensity emission whereas, when the peptide is cleaved by SUB1, high intensity emissions are measured. […] Molecules where thus tested and their Ki (inhibition constant) was determined on the PvSUB1 recombinant enzyme. FIG. 2C provides determination of the Ki of the AG6, AG1 and BH5 compounds for the recombinant PvSUB1 enzyme with the Dabsyl Edans substrate. Ten different concentrations, ranging from 300 μM to 585 nM following sequential 1:2 dilutions, of the compounds were tested using the PvSUB1 enzymatic assay. The final mixture was distributed in duplicate into a 384-well black microtiter plate (Thermo Scientific) and the fluorescence was monitored. The slope of the linear part of the kinetic was determined in an Excel™ (Microsoft) spreadsheet. The Ki and EC50 values expressed in μM were determined using GraphPad Prism™ software. […]
For the kinetic assays we used the recombinant PvSUB1/PfSUB1 enzymes and specific peptide substrates whose sequence are deduced from the auto-maturation site of each one: KLVGADDVSLA (SEQ ID NO: 9), which cleavage occurs between the two aspartates for PvSUB1 and KLVSADNIDIS (SEQ ID NO: 11) which is cleaved between the aspartate and the asparagine for PfSUB1. […] The final mixture was distributed in duplicate into a 384-well black microtiter plate (Thermo Scientific) and the fluorescence was monitored every 3 minutes for 90 min at 37° C. in a Labsystems Fluoroskan Ascent™ spectrofluorometer or a Tecan Infinite M1000™ spectrofluorometer using the excitation and emission wavelengths of […] or 620/680 nm for the Dabsyl/Edans or DYQ660/DY630 substrates respectively. The slope of the linear part of the kinetic was determined in an Excel™ (Microsoft) spreadsheet. Every steps of the enzymatic assay were done on ice to make sure that the protein was not active before the measure of the fluorescence. […]

[2] = biological target: PvSUB1 Dabsyl Edans substrate (Plasmodium vivax)
[3] = biological target: PfSUB1 Dabsyl Edans substrate (Plasmodium falciparum)
SERA5 maturation by SUB1 = assay: Inhibition of maturation of SERA5 (western blot) in synchronized P. falciparum culture; type: cell-based, Plasmodium falciparum; conditions: compounds 90 μM, E64 10 μM; 12 hr, serum-free medium; western blot mAb 24C6.1F1
Description: Next, the selected SUB1 inhibitors were evaluated biologically for their impact on P. falciparum 3D7 stage-specific ex vivo culture. […] In vitro synchronized culture of P. falciparum composed of 0.5% of segmented schizonts (To) was cultivated for 12 hr in serum-free medium in the absence (T12) or presence of DMSO (0.9% v/v) (lane DMSO). Lanes A/G1, A/G6, B/H5 correspond to parasites incubated with 90 μM of corresponding compounds. Lanes E64 and RBC correspond to parasites cultured in presence of E64 (10 μM) and uninfected erythrocytes respectively. Parasite extracts and culture supernatants were analyzed by western blot with mAb 24C6.1F1. SERA5 126 kDa precursor and its processed forms of 73, 56 and 50 kDa are indicated. […] Segmented schizonts (starting material, To) were cultivated for 12 hr in serum-containing medium and their transition to newly formed trophozoites-stages in presence of 0.9% DMSO (DMSO) was analysed by flow cytometry using YOYO1 Facs technique (Li et al, Cytometry, 71A, 297-307, 2007). Gates were selected to exclude uninfected erythrocytes and converted to two-dimensional plots illustrating the consequence of the presence of tested compounds on the arrest of schizogony. All compounds were tested at 90 μM, except E64 tested at 10 μM.

[4] = chloroquino-sensitive clone 3D7, mean ± SEM, read-out: IC50 on P. falciparum 3D7 strain

| Molecule | IC50 (P. falciparum Dd2 strain) | IC50 (P. falciparum 3D7 strain; [4]) [µM] | Ki (recombinant PvSUB1) [µM] | further results |
| --- | --- | --- | --- | --- |
| COc1cccc(C2c3c(-c4ccc(F)cc4)n[nH]c3C(=O)N2c2ccccc2)c1 (stereo not shown) [A/G6] | 14.8 ± 6.7 µM | 17.7 ± 1.7 | 8.2 ± 1.9 | Arrest of schizogony / merozoite egress [1]: able to maintain the parasites to the schizonts stage |
| CCN(CC)CCCC(C)Nc1ccnc2cc(Cl)ccc12 (stereo not shown) [chloroquine, reference compound] | 0.0355 ± 0.0137 mg/L | – | – | IC50 (P. falciparum 3D7 strain; 3D7, read-out: IC50 on P. falciparum 3D7 strain): 0.0043 ± 0.0013 mg/L |
| O=C(C[n+]1cccc(C(=O)Nc2ccccc2)c1)c1ccc(NC(=O)c2ccccc2)cc1 [A/G1] | 3.5 ± 1.7 µM | 4.7 ± 1.8 | 5.5 ± 2.4 | Arrest of schizogony / merozoite egress [1]: able to maintain the parasites to the schizonts stage |
| O=C(Cn1ncc2c3ccccc3n(Cc3cccc(Cl)c3)c2c1=O)N1CCc2ccccc21 [B/H5] | 13 ± 8.1 µM | 16.9 ± 3.3 | 1.4 ± 1 | – |
| recombinant enzymatically active form of Plasmodium vivax SUB1-Belem (PvSUB1-Belem) (enzyme) | – | – | – | apparent Km, FRET-based cleavage assay [2]: 19.7 µM |
| recombinant Plasmodium falciparum SUB1 (PfSUB1) (enzyme) | – | – | – | apparent Km, FRET-based cleavage assay [3]: 30.2 µM |
| CC(C)C[C@H](NC(=O)[C@H]1O[C@@H]1C(=O)O)C(=O)NCCCCN=C(N)N [Compound E64] | – | – | – | Maturation of SERA5 by SUB1 successive cleavages (SERA5 maturation by SUB1): inactive |
